# Results published in ChEMBL document CHEMBL1667731, “N-hydroxypyridones, phenylhydrazones, and a quinazolinone from Isaria farinosa” (J Nat Prod, 2011).
# How the values were obtained:
# Streptococcus pneumoniae = assay: Antibacterial activity against Streptococcus pneumoniae CGMCC 1.1692 after 24 hrs; type: functional, organism-based; details: CGMCC 1.1692, 24 h
# Staphylococcus aureus = assay: Antibacterial activity against Staphylococcus aureus CGMCC 1.2465 after 24 hrs; details: CGMCC 1.2465, 24 h
# A549 = assay: Cytotoxicity against human A549 cells assessed as inhibition of cell viability by MTT assay; type: functional, cell-based
# Candida albicans = assay: Antifungal activity against Candida albicans CGMCC 2.2086 after 24 hrs; type: functional, organism-based; details: CGMCC 2.2086, 24 h
Compound,IC50 (Streptococcus pneumoniae),IC50 (Staphylococcus aureus),IC50 (Candida albicans),"IC50 (A549; Homo sapiens, A549)",IC50 (A549; a549)
C[C@@H]1[C@H](O)[C@@H](C)/C=C/C=C/C=C/C=C/C=C/C=C/C=C/[C@H](O[C@@H]2O[C@H](C)[C@@H](O)[C@H](N)[C@@H]2O)C[C@@H]2O[C@](O)(C[C@@H](O)C[C@@H](O)[C@H](O)CC[C@@H](O)C[C@@H](O)CC(=O)O[C@H]1C)C[C@H](O)[C@H]2C(=O)O [AMPHOTERICIN B],,,0.72 µM,,
CC[C@@H](C)C[C@@H](C)/C=C(C)/C=C/C=C/C(=O)c1c(O)c([C@]2(O)CC[C@@H](O)CC2)cn(O)c1=O [MILITARINONE A],> 150 µM,> 150 µM,> 150 µM,1.75 µM,
CC[C@@H](C)C[C@@H](C)/C=C(C)/C=C/C=C/C(=O)c1c(O)c(-c2ccc(O)cc2)c[nH]c1=O [MILITARINONE B],2.6 µM,2.11 µM,43.4 µM,> 120 µM,
CC[C@@H](C)C[C@@H](C)/C=C(C)/C=C/C=C/C(=O)c1c(O)c(C2=CC[C@@H](O)CC2)cn(O)c1=O [MILITARINONE E],> 150 µM,> 150 µM,> 150 µM,1.59 µM,
CC[C@@H](C)C[C@@H](C)/C=C(C)/C=C/C=C/C(=O)c1c(O)c([C@]23CC[C@H](CC2)O3)cn(O)c1=O [MILITARINONE F],> 150 µM,> 150 µM,,> 120 µM,> 120 µM

# Continued, in another order:
IC50 (Streptococcus pneumoniae),IC50 (Staphylococcus aureus),IC50 (Candida albicans),Compound,"IC50 (A549; Homo sapiens, A549)",IC50 (A549; a549)
> 150 µM,> 150 µM,,O=c1[nH]c(Cc2ccc(O)cc2)nc2ccccc12,> 120 µM,> 120 µM
1.08 µM,0.06 µM,,CC1(C)S[C@@H]2[C@H](NC(=O)[C@H](N)c3ccccc3)C(=O)N2[C@H]1C(=O)O [AMPICILLIN],,
> 150 µM,> 150 µM,,C/C(=N\Nc1ccccc1C(=O)O)C(=O)NCC(=O)O [FARYLHYDRAZONE A],> 120 µM,> 120 µM
> 150 µM,> 150 µM,,C/C(=N\Nc1ccccc1C(=O)O)C(=O)O [FARYLHYDRAZONE B],> 120 µM,> 120 µM
